Measured values: patent US7312024B2, “Materials and methods to inhibit Hodgkin and Reed Sternberg cell growth” (Amgen Canada Inc., priority 1999, dated 2007)

System: HDLM2 cells
Assay: [3H]-thymidine incorporation proliferation of HDLM2 cells after neutralization of IL-13
Format: cell-based, human
Details: IL-13 0.5-200 ng/ml
Method: To investigate the effects of IL-13 and IL-5 on the proliferation of H/RS cells, L428, KMH2 and HDLM2 cells were incubated with either (i) medium alone, (ii) medium containing neutralizing antibodies to IL-13 or IL-5, or (ii) isotype matched control antibodies. Proliferation was measured by determining [^3H]-thyridine incorporation at 24, 48, or 72 hours after treatment.
HD-derived L428, KMH2, and HDLM2 cells and LCL control cells (2×10^4/well) were cultured in 96-well flat-bottom plates for 24 hours, 48 hours, or 72 hours in the presence of anti-IL-13, anti-IL-5, or isotype control antibodies at 5, 10, 20, 30, 50, 100 or 150 μg/ml. Cells were treated either with IL-13 (0.5, 1, 5, 10, 50, 100 and 200 ng/ml), or with these same doses of IL-13 combined with 20 μg/ml anti-IL-13 monoclonal antibody. Tritium-labeled thymidine (1 μCi/well) was added to each well and incubation continued for eight hours. Cells were harvested on filters and incorporation of […] into cellular DNA was measured as previously described [Shahinian, et al., Science 261:609-12 (1993)]. The viability of cultured cell lines after treatment with anti-IL-13 neutralizing antibodies was examined by 7-aminoactinomycin D (7-AAD) staining.

Substance: IL-13: exogenous IL-13 cytokine added to cells
- proliferation with exogenous IL-13 alone versus untreated cells: did not result in an increase in proliferation
